The record followed here is PubChem BioAssay (NCI).

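Test compounds were applied to cells in 96-well plates for 48 hours at 5 doses. GI50 marks 50% less growth. At the TGI there is no net growth.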 Some results are limits rather than exact numbers.

Among the test systems are HL-60(TB) leukemia; HOP-62 NSCLC; HOP-92 NSCLC; OVCAR-8 ovarian; RXF 393 renal; SF-295 CNS; SN12C renal; SR leukemia; U251 CNS; UACC-257 melanoma.
Holding throughout (test): NCI-60 cell line screen, 48 h

For the compound `COc1cc2c3c(n(CCCN)c(=O)c2cc1OC)-c1cc2c(cc1/C3=C\CCN)OCO2`, the GI50 with HL-60(TB) leukemia was 9.09 µM; with HOP-62 NSCLC it was 5.95 µM; with HOP-92 NSCLC it was 3.69 µM; in the experiment with OVCAR-8 ovarian it was 1.99 µM; with RXF 393 renal, 4.41 µM; in the experiment with SF-295 CNS it was 3.33 µM. Further, the GI50 was 0.0627 µM with SN12C renal, 0.166 µM in the experiment with SR leukemia, 1.33 µM in the experiment with U251 CNS and 8.29 µM with UACC-257 melanoma. Besides, the TGI in the experiment on HL-60(TB) leukemia was greater than 73.9 µM; with HOP-62 NSCLC, 36.7 µM; with HOP-92 NSCLC, greater than 49.4 µM; in the experiment with OVCAR-8 ovarian, 13.1 µM; in the experiment with RXF 393 renal, 14.8 µM; in the experiment with SN12C renal it was 3.81 µM. For the same compound, the TGI in the experiment on SR leukemia is greater than 100 µM; in the experiment with U251 CNS it was 11 µM; in the experiment on UACC-257 melanoma it was 19.2 µM.

As to `CC(=O)[C@@]1(O)CC[C@H]2[C@@H]3C[C@H](C)C4=CC(=O)CC[C@]4(C)[C@H]3[C@@H](O)C[C@@]21C`, the TGI in the experiment on HL-60(TB) leukemia, with HOP-62 NSCLC, in the experiment with HOP-92 NSCLC, with OVCAR-8 ovarian, in the experiment with RXF 393 renal and in the experiment with SF-295 CNS was greater than 100 µM each time. In addition, the TGI in the experiment with SN12C renal, with SR leukemia, in the experiment with U251 CNS and in the experiment with UACC-257 melanoma was greater than 100 µM each time.

In the case of `O=c1c2ccccc2n(C[C@H]2CO2)c2ccccc12`, the GI50 in the experiment on HL-60(TB) leukemia was 1.28 µM; with HOP-62 NSCLC it was 2.13 µM; in the experiment on HOP-92 NSCLC it was 2.03 µM; with OVCAR-8 ovarian, 1.26 µM; in the experiment with RXF 393 renal, 1.39 µM; in the experiment on SF-295 CNS, 2.91 µM. Moreover, the GI50 is 1.8 µM in the experiment with SN12C renal, 0.302 µM in the experiment with SR leukemia, 1.82 µM with U251 CNS and 2.1 µM with UACC-257 melanoma. In addition, the TGI was 3.29 µM in the experiment with HL-60(TB) leukemia; 5.84 µM with HOP-62 NSCLC; 5.27 µM in the experiment with HOP-92 NSCLC; 5.35 µM in the experiment on OVCAR-8 ovarian; 2.82 µM with RXF 393 renal; 9.44 µM in the experiment with SF-295 CNS. Also, the TGI in the experiment with SN12C renal is 7.05 µM; in the experiment with SR leukemia, 4.37 µM; with U251 CNS, 7.3 µM; in the experiment with UACC-257 melanoma it was 4.46 µM.

Take `CCOc1ccc(-c2nonc2NC(=O)c2cccc(C)c2)cc1OCC`: the GI50 was greater than 100 µM with HL-60(TB) leukemia; greater than 100 µM in the experiment with HOP-62 NSCLC; 21.1 µM in the experiment on HOP-92 NSCLC; greater than 100 µM with OVCAR-8 ovarian; greater than 100 µM with RXF 393 renal; 30.4 µM in the experiment with SF-295 CNS. Besides, the GI50 with SN12C renal is greater than 100 µM; in the experiment on SR leukemia, greater than 100 µM; in the experiment with U251 CNS, 30.5 µM; in the experiment on UACC-257 melanoma, greater than 100 µM. For the same compound, the TGI is greater than 100 µM in the experiment with HL-60(TB) leukemia; greater than 100 µM in the experiment on HOP-62 NSCLC; 59.1 µM in the experiment with HOP-92 NSCLC; greater than 100 µM with OVCAR-8 ovarian; greater than 100 µM with RXF 393 renal; greater than 100 µM in the experiment with SF-295 CNS. The TGI with SN12C renal, in the experiment with SR leukemia, in the experiment on U251 CNS and in the experiment with UACC-257 melanoma was greater than 100 µM in each case.

In the case of `CC(C)(O)CS(=O)(=O)Nc1ccc2c(c1)CCN(C(=O)COc1cccnc1)C2`, the GI50 with HL-60(TB) leukemia is greater than 100 µM; in the experiment with HOP-62 NSCLC it was 99.4 µM; in the experiment with HOP-92 NSCLC, 97.5 µM; with OVCAR-8 ovarian, 0.0177 µM; in the experiment on RXF 393 renal it was greater than 100 µM; with SF-295 CNS, greater than 61.6 µM. Further, the GI50 was 0.0677 µM in the experiment on SN12C renal, greater than 45.7 µM with SR leukemia, greater than 62.7 µM in the experiment with U251 CNS and greater than 100 µM with UACC-257 melanoma. Further, the TGI in the experiment on HL-60(TB) leukemia, in the experiment on HOP-62 NSCLC, with HOP-92 NSCLC, in the experiment with OVCAR-8 ovarian, in the experiment on RXF 393 renal and in the experiment on SF-295 CNS was greater than 100 µM each time. The TGI with SN12C renal, in the experiment with SR leukemia, with U251 CNS and with UACC-257 melanoma was greater than 100 µM each time.

As to `C=CC(=O)N1CCN(c2nc(=O)n(-c3c(C)ccnc3C(C)C)c3nc(-c4c(O)cccc4F)c(F)cc23)[C@@H](C)C1`, the GI50 with HL-60(TB) leukemia was 20.5 µM; with HOP-62 NSCLC, less than 0.0291 µM; with HOP-92 NSCLC, 29.8 µM; in the experiment with OVCAR-8 ovarian, 30.9 µM; in the experiment with RXF 393 renal it was 17.7 µM; with SF-295 CNS, 44.4 µM. Also, the GI50 in the experiment on SN12C renal is 38 µM; with SR leukemia, 17.3 µM; with U251 CNS, 48.7 µM; with UACC-257 melanoma, greater than 56.2 µM. The TGI was 53.8 µM with HL-60(TB) leukemia; greater than 66.5 µM in the experiment on HOP-62 NSCLC; greater than 58.8 µM in the experiment with HOP-92 NSCLC; greater than 100 µM in the experiment on OVCAR-8 ovarian; 59.2 µM in the experiment on RXF 393 renal; greater than 100 µM with SF-295 CNS. Besides, the TGI is greater than 100 µM in the experiment on SN12C renal, 70.3 µM with SR leukemia, greater than 100 µM in the experiment on U251 CNS and greater than 100 µM in the experiment with UACC-257 melanoma.

Turning to `COc1cc2cc(Oc3ccc(NC(=O)Nc4cccc(C(F)(F)F)c4)cc3)c(C)nc2cc1OC`, the GI50 was 1.56 µM in the experiment on HL-60(TB) leukemia; 2.33 µM in the experiment with HOP-62 NSCLC; 1.26 µM with HOP-92 NSCLC; 1.71 µM with OVCAR-8 ovarian; 1.63 µM with RXF 393 renal; 1.13 µM with SF-295 CNS. Moreover, the GI50 in the experiment with SN12C renal was 2.06 µM; in the experiment on SR leukemia, 1.17 µM; with U251 CNS, 1.56 µM; in the experiment on UACC-257 melanoma, 1.09 µM. The TGI in the experiment on HL-60(TB) leukemia was 3.91 µM; in the experiment with HOP-62 NSCLC it was 8.44 µM; in the experiment on HOP-92 NSCLC, 3.96 µM; in the experiment on OVCAR-8 ovarian, 6.28 µM; in the experiment on RXF 393 renal, 4.97 µM; in the experiment with SF-295 CNS it was 3.59 µM. Besides, the TGI in the experiment on SN12C renal stood at 16.3 µM; in the experiment with SR leukemia it was 3.33 µM; in the experiment on U251 CNS it was 5.61 µM; in the experiment with UACC-257 melanoma, 3.66 µM.

Turning to `COC(=O)C1=C(C(=O)ON)C2C=CC1(C(Cc1ccccc1)Nc1ccccc1)O2` (centres undefined), the GI50 with HL-60(TB) leukemia is 2.89 µM; in the experiment with HOP-62 NSCLC, 14.4 µM; in the experiment on HOP-92 NSCLC it was 1.51 µM; in the experiment on OVCAR-8 ovarian, 2.75 µM; in the experiment with RXF 393 renal, 1.78 µM; in the experiment with SF-295 CNS, 13.8 µM. The GI50 in the experiment on SN12C renal is 1.99 µM; in the experiment with SR leukemia, 2.67 µM; in the experiment on U251 CNS it was 14.2 µM; in the experiment with UACC-257 melanoma it was 1.81 µM. For the same compound, the TGI in the experiment with HL-60(TB) leukemia is 10.1 µM; with HOP-62 NSCLC, 27.9 µM; in the experiment with HOP-92 NSCLC, 2.91 µM; in the experiment on OVCAR-8 ovarian, 8.71 µM; with RXF 393 renal it was 3.2 µM; with SF-295 CNS, 26.7 µM. Moreover, the TGI is 4.45 µM with SN12C renal, 43.6 µM with SR leukemia, 27.2 µM in the experiment on U251 CNS and 3.34 µM in the experiment with UACC-257 melanoma.
